These results are taken from a melting point compilation (Tetko et al.; mined from patent text by program, amines drawn as free bases though some values may be those of a salt).

As a reminder, the melting point is the temperature, or range, at which the solid turns liquid.

In the case of `CC(C)(C)OC(=O)N1CCN2C(=O)N(c3cc(Cl)cc(Cl)c3)C(=O)C2(Cc2ccc(Br)cc2)C1` (centres undefined), the melting point is 79.5 °C.
As for `Cc1noc(C)c1-c1cn(Cc2ccccc2)c(=O)c2ccccc12`, the figure is 139 to 141 °C; as for `CCN1c2nc(Cl)ccc2NC(=O)c2cc(CCc3cccc(NS(C)(=O)=O)c3)cnc21`, 131 to 132 °C.
In turn, `CCOc1cc(C(CS(C)(=O)=O)N2C(=O)c3cccc(Cc4ccc[nH]4)c3C2=O)ccc1OC` (centres undefined) showed a melting point of 80 to 82 °C.
With `COC(=O)C1CCC2C3CCC4CC(=O)CCC4(C)C3C(NC3CCCC3)CC12C` (centres undefined), the melting point fell in the range of 156 to 158 °C.
In the case of `COc1ccc(NC(=O)[C@H]2[C@H](c3ccc(S(N)(=O)=O)cc3)C23CCCC3)c(OC)n1` (relative stereo), the melting point lay within 112 to 115 °C.
As for `CCOC1=N[C@@H](C(C)C)C(=O)N[C@]1(C)Cc1ccccc1`, the figure is 125 °C; as for `c1cncc(Nc2ncc(-c3ccncn3)c(-c3ccco3)n2)c1`, 174 °C.
In the case of `Cc1nc(-c2ccc(-c3ccc(C(=O)O)cc3)c(C)c2)no1` it was 229 to 231 °C; in that of `O=C(O)Cc1ccc(Oc2ccc3c(c2)S(=O)(=O)NC2CCCN32)cc1` (centres undefined), 166 to 169 °C; in that of `O=S(=O)(N=Cc1ccc(Cl)cc1)c1ccc(Cl)cc1`, 128 °C.
As for `CS(=O)(=O)NCCn1c(CO)nc2c(N)nc3cccnc3c21`, the figure is 239 to 242 °C.
For the compound `O=C(O)c1ccc(F)cc1NS(=O)(=O)c1ccccc1`, the melting point was in the range of 158 to 159 °C.
In turn, `CCNc1nc2ccc(CCc3cn4ccc(C)cc4n3)cc2o1` registered a melting point of 156 to 158 °C.
In the case of `CSc1ccccc1-c1ccc(C(=O)O)cc1` it was 220 to 222 °C; in that of `CCc1ccccc1NC=C1C(=O)N(c2cccc(-c3nnn[nH]3)c2)N=C1C`, 262 °C.
As for `COc1cc(CN[C@H]2CC[C@H](Nc3ccnc4cc(Cl)ccc34)CC2)cc(OC)c1`, the figure is 150 °C; as for `NCCCn1ccc2cc(NC(=O)c3nc4ccc(Cl)cc4n3Cc3ccccc3)ccc21`, 106 to 108 °C.
In the case of `NC(=O)NC1CCCc2ccsc21` (centres undefined) it was 211 to 213 °C; in that of `Cc1c(-c2ccncc2)sc(-c2ccncc2)c1CF`, 148 °C.
`CCOCc1nc2c(N)nc3cc(-c4ccccc4)ccc3c2n1CCCN1CCCC1=O`: the melting point fell in the range of 199 to 203 °C.
With `O=C1c2ccccc2C(=O)N1CCc1ccc(C(F)(F)F)cc1`, the melting point lay in the range of 134 to 135 °C.
In the case of `COc1ccc(C/N=C/C(/C=N/Cc2ccc(OC)cc2)[N+](=O)[O-])cc1` it was 132 °C.
In the case of `CS(=O)(=O)c1cc(C(=O)O)cc(Cl)c1Nc1ccccc1`, the melting point is 187 to 189 °C.
`CCS(=O)(=O)c1nnc(N(C(C)=O)C(=O)N(C)C)s1`: the melting point was found to be 145 °C.
As for `CCCCCC1CCC(CCc2ccc(-c3ncc(O)cn3)c(F)c2F)CC1` (centres undefined), the figure is 157 °C; as for `CCOC(=O)c1cn(C2CC2)c2c(Cl)c(F)c(Cl)cc2c1=O`, 215 to 217 °C.
`CC(C)OC(=O)c1cc(NC(=O)C(C)(C)C)c(F)cc1Cl`: the melting point lay in the range of 81 to 83 °C.
As for `O=C(O)c1cc(C#Cc2ccccc2)c(C(=O)O)cc1C#Cc1ccccc1`, the figure is greater than 360 °C.
As for `CC(C)C(=O)OC1C(CO)OC(n2cnc3c(N)ncnc32)C1OC(=O)C(C)C` (centres undefined), the figure is 207 to 208 °C; as for `CC(C)NC(C)CC1=C2c3ccc(O)cc3CCC2CCNC1=O` (centres undefined), 202 to 204 °C; as for `O=[N+]([O-])c1cn2c(n1)OC(COc1ccc(N3CCC(Cc4cc5cc(OC(F)(F)F)ccc5o4)CC3)cc1)CC2` (centres undefined), 142 to 143 °C.
The compound `CC(C)Sc1cc([Si](C)(C)C)oc1C(=O)Nc1nnn[nH]1` registered a melting point of 181 to 182 °C.
As for `CN(c1ccncc1)N1CCc2cc(O)ccc2C1`, the figure is 263 to 266 °C; as for `CCCCc1sc2ccccc2c1C(=O)c1ccc(NS(=O)(=O)c2ccc(C)cc2)cc1`, 128 °C; as for `O=C(Nc1nc(-c2cc(Cl)nc(Cl)c2)cs1)NS(=O)(=O)c1ccccc1C(F)(F)F`, greater than 280 °C.
In turn, `CCc1cc(-c2ccc(NC(=O)N3CCc4cc(SC)c(C(F)(F)F)cc43)cc2)ccn1` yielded a melting point of 158 to 161 °C.
In the case of `O=C(Cn1c(=O)n(S(=O)(=O)c2ccc(Cl)cc2)c(=O)c2ccc(Cl)cc21)Nc1ccc(C(=O)O)cc1` it was 219 to 221 °C; in that of `COC(=N)Nc1nc(OC)cc(OC)n1`, 91 to 95 °C.
As for `CC(C)[C@H](N)C(=O)NC(=O)N(CCCl)N=O`, the figure is 115 to 117 °C.
In the case of `CN(C(=O)c1ccccn1)c1cc(F)cc(F)c1` it was 102 to 104 °C; in that of `O=C(O)CN1CC2(CCCCC2)N(c2ccccc2)CC1=O`, 167 to 169 °C; in that of `COc1ccc(S(=O)(=O)N2c3ccc(Br)cc3-c3ccccc3C2c2ccccc2)cc1` (centres undefined), 209 to 211 °C.
For the compound `CCCCCCCCOC(=O)CCc1cc(-n2nc3ccc(S(=O)(=O)c4ccccc4)cc3n2)c(O)c(C(C)(C)C)c1`, the melting point fell in the range of 62 to 63 °C.
As for `Cc1nn(C)c2[nH]c(=O)c3c(c12)CCCC3`, the figure is greater than 300 °C; as for `N#CSCSc1sccc1[N+](=O)[O-]`, 51 to 53 °C.
`O=[N+]([O-])c1ccc(C(Cl)Cl)cc1` gave a melting point of 44 to 46 °C.
In the case of `CCCNC(C=Cc1ccccc1Cl)=NC#N` it was 134 to 136 °C; in that of `CCOC(=O)CCc1c(OCc2ccc(OCc3nc(-c4ccccc4)oc3C)cc2)ccc2ccccc12`, 86 to 87 °C; in that of `CCOC(=O)n1c(=S)[nH]c2ccc(Br)cc2c1=O`, 214 °C.
As for `COc1ccc2cc([C@H](C)C(=O)SCCCCO[N+](=O)[O-])ccc2c1`, the figure is 30 to 35 °C; as for `OCc1cccc2sc(-c3ccccc3)nc12`, 116 to 117 °C.
In the case of `C=CCN(C(=O)c1ccco1)c1c(C)cccc1C` it was 68 to 69 °C; in that of `O=C1CC(=C[N+](=O)[O-])Nc2ccc(Cl)cc2N1c1ccccc1`, 248 to 251 °C; in that of `CC(=O)N(C)c1ccc2c(c1)C(c1ccccc1F)=NCc1cnc(C)n1-2`, 217 to 223 °C.
`O=C(Nc1cccc(F)c1)C12CC3CC(CC(C3)C1)C2` registered a melting point of 174 to 177 °C.
As for `O=C1NC(=O)C(c2ccc(-c3ccccc3)s2)O1` (centres undefined), the figure is 233 to 235 °C; as for `C#Cc1ccc(C2SCC(C(C)(C)C)CS2)cc1` (centres undefined), 149 °C.
As for `CCn1c(C(C#N)c2cc(C)cc(C#N)c2)c(C(C)C)c(=O)[nH]c1=O` (centres undefined), the figure is 260 to 261 °C; as for `CN1CC2(OCCO2)c2ccc3ccccc3c2S1(=O)=O`, 169 to 171 °C; as for `COc1ccc2c(c1)C(=NOCCN1CCCC1)c1c-2cnc2ccccc12`, 85 to 86 °C.
As for `COc1cc2c(cc1CCNC(=O)c1cc(OC)c(OC)c(OC)c1)CCC2`, the figure is 144 to 145 °C.
`CCOC(=O)Cc1sc(Sc2cccc(C(=O)O)n2)nc1C` registered a melting point of 123 to 125 °C.
As for `O=C(NC(Cc1c[nH]c2ccccc12)C(=O)OCc1cccc(C(F)(F)F)c1)c1ccccc1` (centres undefined), the figure is 118 °C; as for `COc1ccccc1NS(=O)(=O)c1ccc(C)cc1`, 126 to 128 °C; as for `CN1CCC(c2c[nH]c3ccc(-c4cccs4)cc23)C1` (centres undefined), 166 to 168 °C.
In the case of `CCCCN(c1cccc(-c2ccnc3c([N+](=O)[O-])cnn23)c1)S(C)(=O)=O` it was 153 to 155 °C; in that of `CCCCCCCCCCCCCCCCOCC(CO)OCCCCCCCCCCCCCC` (centres undefined), 42 to 43 °C.
In the case of `CN(Cc1ccc(-c2ccc(O)c(Br)c2)cc1)C(=O)c1cn(C)c2ccccc12` it was 237 to 239 °C; in that of `Cc1cc2c(cc1C=O)C(C)(C)CCC2(C)C`, 82.4 to 84.1 °C.
In turn, `CN(C)Nc1c([N+](=O)[O-])cc(C(F)(F)F)c(N)c1[N+](=O)[O-]` showed a melting point of 150 to 154 °C.
The compound `N#Cc1nn(-c2c(Cl)cc(C(F)(F)F)cc2Cl)c(N)c1-c1cc(Br)no1` came in with a melting point of 227 °C.
The compound `Cc1ccc(CCC(=O)c2ccc(N3CCN(c4ccncc4)CC3)cc2)cc1` had a melting point of 130 to 132 °C.
In the case of `COc1cc(OC)cc(C2CCCCC2=CC(=O)O)c1` (centres undefined) it was 154 to 156 °C.
As for `COc1ccc(C(=O)NC2CCCNC(=O)C2)cc1OC` (centres undefined), the figure is 190 to 191 °C; as for `O=C(CCCCCCOc1ccccc1)c1nnc(CO)o1`, 83 to 85 °C; as for `COC(=O)C1CN(C(=O)C2=Cc3cc(OC)c(OC)cc3CCC2)CCN1` (centres undefined), 103 to 104 °C.
As for `COc1ccc(C(=C/C=C/C(=O)NCCCCc2cccnc2)c2ccc(OC)cc2)cc1`, the figure is 76 to 77 °C.
`COC(=O)Cn1c(=O)n(C)c(=O)n(-c2cc(Oc3c(Cl)ccc(C)c3Cl)ccc2[N+](=O)[O-])c1=O`: the melting point fell in the range of 200 to 202 °C.
In the case of `COc1ccc2c(c1)cc(C(=O)O)n2C(C)=O` it was 173 to 175 °C.
As for `COc1ccc2cc(CN(C)C(=O)c3ccc(Oc4cc(Cl)cc(Cl)c4)o3)ccc2c1Br`, the figure is 115 to 117 °C.
In the case of `CC(C)CCC(=O)N1C(=O)O[C@H](c2ccccc2)[C@@H]1C` it was 76 to 77 °C; in that of `O=C1C(=Cc2ccco2)CCc2cc(OCCn3ccnc3)ccc21`, 109 to 110 °C; in that of `COc1ccc(Nc2ccnc3nc(C)c(OC(=O)COC(C)=O)cc23)cc1`, 213 to 216 °C.
In turn, `Brc1ccc2c(c1)N=C(NCc1cccnc1)c1ccccc1N2` came in with a melting point of 152 to 155 °C.
In the case of `COc1ccc(-c2cc(=S)n(Cc3cccnc3)nc2-c2ccc(OC)cc2)cc1` it was 163 to 164 °C; in that of `CC(C)Oc1ccc(CCCO)c(Oc2ncc(C(F)(F)F)cc2Cl)c1`, 72 to 73 °C; in that of `CSCc1cc(N)ccc1N1C(=O)c2ccc(Cl)cc2C1=O`, 134 to 137 °C.
As for `COC(=O)c1cc2sccc2s1`, the figure is 96 to 97 °C.
